The text below walks through data of ChEMBL document CHEMBL1126496, “4-Aminomethyl chromans: dependence of serotonin and dopamine binding upon aromatic ring substitution” (Bioorg Med Chem Lett, 1993).

A value given as a limit tells only on which side of the number the result lay.

One assay deals with D(2) dopamine receptor (Rattus norvegicus, UniProt P61169). The assay can be described thus: Compound was tested for its binding affinity against Dopamine receptor D2 using [3H]raclopride radioligand.
For assay [1], the target named is T1, 5-hydroxytryptamine receptor 1A (Homo sapiens, UniProt P08908).
T1 sequence (P08908 whole entry): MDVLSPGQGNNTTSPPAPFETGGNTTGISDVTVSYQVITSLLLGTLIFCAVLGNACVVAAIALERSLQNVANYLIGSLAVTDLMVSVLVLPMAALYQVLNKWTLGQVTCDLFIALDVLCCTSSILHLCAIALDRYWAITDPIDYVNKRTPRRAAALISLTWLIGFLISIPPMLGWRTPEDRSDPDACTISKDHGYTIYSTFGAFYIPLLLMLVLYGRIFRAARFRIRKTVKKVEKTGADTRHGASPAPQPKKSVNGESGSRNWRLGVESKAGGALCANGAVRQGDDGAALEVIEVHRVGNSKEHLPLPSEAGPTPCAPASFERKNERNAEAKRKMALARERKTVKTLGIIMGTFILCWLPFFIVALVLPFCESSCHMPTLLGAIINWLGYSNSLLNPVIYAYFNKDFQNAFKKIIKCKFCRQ
Briefly: Compound was tested for its binding affinity against 5-hydroxytryptamine 1A receptor using [3H]8-OH-DPAT radioligand.

As a reminder, the Ki is a measure of affinity in units of concentration, obtained from inhibition or displacement. A low value points to higher affinity.

Sequence of D(2) dopamine receptor (P61169 whole entry): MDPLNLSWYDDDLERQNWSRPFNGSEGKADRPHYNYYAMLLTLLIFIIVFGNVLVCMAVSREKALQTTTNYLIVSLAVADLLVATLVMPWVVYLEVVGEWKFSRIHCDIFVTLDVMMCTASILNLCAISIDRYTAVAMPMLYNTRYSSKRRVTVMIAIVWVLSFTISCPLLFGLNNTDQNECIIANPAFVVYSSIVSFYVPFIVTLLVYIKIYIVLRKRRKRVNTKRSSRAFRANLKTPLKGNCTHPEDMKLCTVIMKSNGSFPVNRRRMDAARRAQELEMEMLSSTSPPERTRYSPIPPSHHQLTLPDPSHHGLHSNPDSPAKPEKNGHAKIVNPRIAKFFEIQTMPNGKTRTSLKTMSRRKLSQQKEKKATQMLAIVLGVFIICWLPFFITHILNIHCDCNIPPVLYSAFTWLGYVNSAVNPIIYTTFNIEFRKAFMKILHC

On to `COc1ccc2c(c1)OCCC2CN1CCC2(CC1)C(=O)NCN2c1ccccc1` (stereo unspecified), for which the Ki was found to be 274 nM on D(2) dopamine receptor and 611 nM in assay [1].

On to `COc1cccc2c1C(CNCCCc1ccccc1)CCO2` (stereo unspecified), for which the figures for the Ki (at D(2) dopamine receptor; in assay [1]) were 279 nM and greater than 1000 nM, respectively.

Take `COc1cccc2c1OCCC2CNCCCc1ccccc1` (stereo unspecified): the Ki at D(2) dopamine receptor was found to be 620 nM; in assay [1] it was 7 nM.

In the case of `COc1ccc2c(c1)C(CN1CCC3(CC1)C(=O)NCN3c1ccccc1)CCO2` (stereo unspecified), the Ki on D(2) dopamine receptor came out at 164 nM; in assay [1], 247 nM.

As to `COc1cccc2c1C(CN1CCC3(CC1)C(=O)NCN3c1ccccc1)CCO2` (stereo unspecified), the Ki was 29 nM on D(2) dopamine receptor and 12 nM in assay [1].

As for `COc1ccc2c(c1)C(CNCCCc1ccccc1)CCO2` (stereo unspecified), the inhibition constant Ki was greater than 1000 nM at D(2) dopamine receptor and 93 nM in assay [1].

With `COc1cccc2c1OCCC2CN1CCC2(CC1)C(=O)NCN2c1ccccc1` (stereo unspecified), the Ki (at D(2) dopamine receptor; in assay [1]) was greater than 1000 nM throughout.

Regarding `COc1ccc2c(c1)OCCC2CNCCCc1ccccc1` (stereo unspecified), the values for the inhibition constant Ki (on D(2) dopamine receptor; in assay [1]) were greater than 1000 nM and 28 nM, respectively.
